In assay [1] the target is T1, human 5-hydroxytryptamine-2C (h5-HT2C) receptor (Homo sapiens, UniProt P28335).
T1 construct: expressed in transfected cells; host or cells: CHO (Chinese Hamster Ovary) cells; membrane preparation
T1 sequence (P28335 33-458): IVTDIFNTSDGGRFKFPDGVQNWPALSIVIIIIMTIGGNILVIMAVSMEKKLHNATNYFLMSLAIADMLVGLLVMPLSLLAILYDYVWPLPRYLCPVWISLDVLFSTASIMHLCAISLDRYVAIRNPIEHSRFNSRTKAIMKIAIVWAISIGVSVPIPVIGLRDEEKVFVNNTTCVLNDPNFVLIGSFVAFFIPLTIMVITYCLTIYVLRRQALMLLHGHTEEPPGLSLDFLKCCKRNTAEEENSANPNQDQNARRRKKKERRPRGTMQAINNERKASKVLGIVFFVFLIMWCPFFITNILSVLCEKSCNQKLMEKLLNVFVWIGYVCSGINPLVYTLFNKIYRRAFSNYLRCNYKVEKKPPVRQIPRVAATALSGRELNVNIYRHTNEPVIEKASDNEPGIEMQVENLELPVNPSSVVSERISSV
Put plainly: [125I]DOI competition binding at h5-HT2C receptor in transfected CHO cell membranes. The following applies: [125I]DOI displacement, CHO membranes expressing h5-HT2C; 95% confidence interval in adjacent column.

The target of assay [2] is T2, human serotonin 5-HT2C receptor (Homo sapiens, UniProt P28335).
T2 construct: expressed in transfected cells; host or cells: CHO (Chinese Hamster Ovary) cells; membrane preparation
T2 sequence (P28335 33-458): T1 sequence (P28335 33-458)
Put plainly: Saturation binding of [125I]DOI at the human 5-HT2C receptor. The following applies: saturation binding with increasing concentrations of [125I]DOI; read-out: dissociation constant, KD. The source says: To evaluate the affinity of various compounds of formula I for activity at the 5-HT2C receptor, a CHO (Chinese Hamster Ovary) cell line transfected with the cDNA expressing the human 5-hydroxytryptamine-2C (h5-HT2C) receptor is maintained in DMEM (Dulbecco's Modified Eagle Media) supplied with fetal calf serum, glutamine, and the markers: guaninephosphoribosyl transferase (GTP) and hypoxanthinethymidine (HT). The cells are allowed to grow to confluence in large culture dishes with intermediate changes of media and splitting. Upon reaching confluence, the cells are harvested by scraping. The harvested cells are suspended in half volume of fresh physiological phosphate buffered saline (PBS) solution and centrifuged at low speed (900×g). This operation is repeated once. The collected cells are then homogenized with a polytron at setting #7 for 15 sec in ten volumes of 50 mM Tris.HCl, pH 7.4 and 0.5 mM EDTA. […] The resulting pellet is resuspended in a small volume of Tris.HCl buffer and the tissue protein content is determined in aliquots of 10-25 μL volumes. […]
The dissociation constant, KD of [^125I] […] The bound complex caught on the filter disk is dried in a vacuum oven heated to 60° C. and the radioactivity measured by liquid scintillation with 40 μL Microscint-20 scintillant in a Packard TopCount® equipped with six (6) photomultiplier detectors.

As a reminder, the Ki is the dissociation constant of the complex between target and ligand, obtained from inhibition or displacement. A higher Ki goes with weaker binding. What is called Kd is the free concentration of one partner at which half of the binding sites on the other are occupied at equilibrium, for simple one-to-one binding.

Take `CSc1ccc2c(c1)C(N1CCN(C)CC1)Cc1ccccc1S2` (centres unmarked) [Methiothepin]: in assay [1], the Ki worked out at 4.6 nM.
Regarding `COc1cc(CC(C)N)c(OC)cc1I` (centres unmarked) [[^125I] DOI], the equilibrium dissociation constant (Kd) in assay [2] was 0.4 nM.

Values taken from US7402687B2, “Dihydrobenzofuran derivatives and uses thereof” (Wyeth, priority 2005, dated 2008).
